# Laboratory results published in PubChem BioAssay (NCI).
# Several values for one entry are separate records, joined by “and”; a condition that tells them apart may be missing. Equal values may be shown once.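 Test compounds were applied to cells in 96-well plates for 48 hours at 5 doses. Here, GI50 denotes the concentration required for 50% inhibition of growth. TGI marks complete inhibition of growth.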
# How the values were obtained:
# Assay in all cases: inhibition of tumour cell growth, NCI panel, 48 h
# 786-0 renal = tested on: 786-0 renal
# A498 renal = tested on: A498 renal
# A549 NSCLC = tested on: A549 NSCLC
# ACHN renal = tested on: ACHN renal
# CAKI-1 renal = tested on: CAKI-1 renal
# COLO 205 colon = tested on: COLO 205 colon
# DMS 114 small cell lung = tested on: DMS 114 small cell lung
# DMS 273 small cell lung = tested on: DMS 273 small cell lung
# EKVX NSCLC = tested on: EKVX NSCLC
# HCT-116 colon = tested on: HCT-116 colon
# HCT-15 colon = tested on: HCT-15 colon
# HL-60(TB) leukemia = tested on: HL-60(TB) leukemia
# HOP-92 NSCLC = tested on: HOP-92 NSCLC
# HT29 colon = tested on: HT29 colon
# IGROV1 ovarian = tested on: IGROV1 ovarian
# K-562 leukemia = tested on: K-562 leukemia
# KM20L2 colon = tested on: KM20L2 colon
# LOX IMVI melanoma = tested on: LOX IMVI melanoma
# LXFL 529 NSCLC = tested on: LXFL 529 NSCLC
# M14 melanoma = tested on: M14 melanoma
# M19-MEL melanoma = tested on: M19-MEL melanoma
# MALME-3M melanoma = tested on: MALME-3M melanoma
# MOLT-4 leukemia = tested on: MOLT-4 leukemia
# NCI-H226 lung = tested on: NCI-H226 lung
# NCI-H23 lung = tested on: NCI-H23 lung
# NCI-H460 lung = tested on: NCI-H460 lung
# NCI-H522 lung = tested on: NCI-H522 lung
# OVCAR-3 ovarian = tested on: OVCAR-3 ovarian
# OVCAR-4 ovarian = tested on: OVCAR-4 ovarian
# OVCAR-5 ovarian = tested on: OVCAR-5 ovarian
# OVCAR-8 ovarian = tested on: OVCAR-8 ovarian
# RPMI-8226 leukemia = tested on: RPMI-8226 leukemia
# RXF 393 renal = tested on: RXF 393 renal
# RXF-631 renal = tested on: RXF-631 renal
# SF-268 CNS = tested on: SF-268 CNS
# SF-295 CNS = tested on: SF-295 CNS
# SF-539 CNS = tested on: SF-539 CNS
# SK-MEL-2 melanoma = tested on: SK-MEL-2 melanoma
# SK-MEL-28 melanoma = tested on: SK-MEL-28 melanoma
# SK-MEL-5 melanoma = tested on: SK-MEL-5 melanoma
# SK-OV-3 ovarian = tested on: SK-OV-3 ovarian
# SN12C renal = tested on: SN12C renal
# SNB-19 CNS = tested on: SNB-19 CNS
# SNB-75 CNS = tested on: SNB-75 CNS
# SNB-78 CNS = tested on: SNB-78 CNS
# SW-620 colon = tested on: SW-620 colon
# TK-10 renal = tested on: TK-10 renal
# UACC-257 melanoma = tested on: UACC-257 melanoma
# UACC-62 melanoma = tested on: UACC-62 melanoma
# UO-31 renal = tested on: UO-31 renal
# XF 498 CNS = tested on: XF 498 CNS
# CCRF-CEM leukemia = tested on: CCRF-CEM leukemia
# DLD-1 colon = tested on: DLD-1 colon
# HCC-2998 colon = tested on: HCC-2998 colon
# HOP-18 NSCLC = tested on: HOP-18 NSCLC
# HOP-62 NSCLC = tested on: HOP-62 NSCLC
# KM12 colon = tested on: KM12 colon
# U251 CNS = tested on: U251 CNS
smiles,measurement,setting,value
O=C(CC1(O)C(=O)Nc2c(Cl)cc(Cl)cc21)c1ccccc1 (stereo not drawn),TGI,786-0 renal,> 100 µM
same,TGI,A498 renal,> 100 µM
same,TGI,A549 NSCLC,> 100 µM
same,TGI,ACHN renal,> 100 µM
same,TGI,CAKI-1 renal,> 100 µM
same,TGI,COLO 205 colon,> 100 µM
same,TGI,DMS 114 small cell lung,> 100 µM
same,TGI,DMS 273 small cell lung,> 100 µM
same,TGI,EKVX NSCLC,> 100 µM
same,TGI,HCT-116 colon,> 100 µM
same,TGI,HCT-15 colon,> 100 µM
same,TGI,HL-60(TB) leukemia,> 100 µM
same,TGI,HOP-92 NSCLC,> 100 µM
same,TGI,HT29 colon,> 100 µM
same,TGI,IGROV1 ovarian,> 100 µM
same,TGI,K-562 leukemia,> 100 µM
same,TGI,KM20L2 colon,> 100 µM
same,TGI,LOX IMVI melanoma,> 100 µM
same,TGI,LXFL 529 NSCLC,> 100 µM
same,TGI,M14 melanoma,> 100 µM
same,TGI,M19-MEL melanoma,> 100 µM
same,TGI,MALME-3M melanoma,> 100 µM
same,TGI,MOLT-4 leukemia,> 100 µM
same,TGI,NCI-H226 lung,> 100 µM
same,TGI,NCI-H23 lung,> 100 µM
same,TGI,NCI-H460 lung,> 100 µM
same,TGI,NCI-H522 lung,> 100 µM
same,TGI,OVCAR-3 ovarian,> 100 µM
same,TGI,OVCAR-4 ovarian,> 100 µM
same,TGI,OVCAR-5 ovarian,> 100 µM
same,TGI,OVCAR-8 ovarian,> 100 µM
same,TGI,RPMI-8226 leukemia,> 100 µM
same,TGI,RXF 393 renal,> 100 µM
same,TGI,RXF-631 renal,> 100 µM
same,TGI,SF-268 CNS,> 100 µM
same,TGI,SF-295 CNS,> 100 µM
same,TGI,SF-539 CNS,> 100 µM
same,TGI,SK-MEL-2 melanoma,> 100 µM
same,TGI,SK-MEL-28 melanoma,> 100 µM
same,TGI,SK-MEL-5 melanoma,> 100 µM
same,TGI,SK-OV-3 ovarian,> 100 µM
same,TGI,SN12C renal,> 100 µM
same,TGI,SNB-19 CNS,> 100 µM
same,TGI,SNB-75 CNS,> 100 µM
same,TGI,SNB-78 CNS,> 100 µM
same,TGI,SW-620 colon,> 100 µM
same,TGI,TK-10 renal,> 100 µM
same,TGI,UACC-257 melanoma,> 100 µM
same,TGI,UACC-62 melanoma,> 100 µM
same,TGI,UO-31 renal,> 100 µM
same,TGI,XF 498 CNS,> 100 µM
O=C1c2ccccc2-c2c3c(cc4ccnc1c24)OCO3,TGI,786-0 renal,27.2 µM and > 100 µM
same,TGI,A498 renal,12.8 µM
same,TGI,A549 NSCLC,14.3 µM and 17.4 µM
same,TGI,ACHN renal,24 µM and 29.3 µM
same,TGI,CAKI-1 renal,28.1 µM and 15.5 µM
same,TGI,CCRF-CEM leukemia,39 µM and 20.7 µM
same,TGI,COLO 205 colon,82.5 µM and 16 µM
same,TGI,DLD-1 colon,24.7 µM and 27.3 µM
same,GI50,DMS 114 small cell lung,10.1 µM and 4.87 µM
same,TGI,DMS 114 small cell lung,> 100 µM and 32.4 µM
same,TGI,DMS 273 small cell lung,29.4 µM and 19.2 µM
same,TGI,EKVX NSCLC,11.7 µM and 35.7 µM
same,TGI,HCC-2998 colon,60.1 µM
same,TGI,HCT-116 colon,33.3 µM and 33.6 µM
same,TGI,HCT-15 colon,68.3 µM and > 100 µM
same,TGI,HL-60(TB) leukemia,15.6 µM
same,TGI,HOP-18 NSCLC,> 100 µM
same,TGI,HOP-62 NSCLC,21.1 µM
same,TGI,HOP-92 NSCLC,39.9 µM and 37.1 µM
same,TGI,HT29 colon,> 100 µM and 78 µM
same,TGI,IGROV1 ovarian,> 100 µM and 34.3 µM
same,TGI,K-562 leukemia,> 100 µM and 15 µM
same,TGI,KM12 colon,> 100 µM
same,TGI,KM20L2 colon,> 100 µM and 60.9 µM
same,TGI,LOX IMVI melanoma,58.4 µM and 15 µM
same,TGI,LXFL 529 NSCLC,51.5 µM and > 100 µM
same,TGI,M14 melanoma,> 100 µM
same,TGI,M19-MEL melanoma,86.7 µM and 12.9 µM
same,TGI,MALME-3M melanoma,11 µM and 15.6 µM
same,TGI,MOLT-4 leukemia,15.6 µM and > 100 µM
same,TGI,NCI-H226 lung,26.2 µM and 24.4 µM
same,TGI,NCI-H23 lung,25.9 µM and 17.4 µM
same,TGI,NCI-H460 lung,19.6 µM and 16.4 µM
same,GI50,NCI-H522 lung,0.885 µM and 4.26 µM
same,TGI,NCI-H522 lung,13.3 µM and 15.5 µM
same,TGI,OVCAR-3 ovarian,60.4 µM and 48.9 µM
same,TGI,OVCAR-4 ovarian,69.7 µM and > 100 µM
same,TGI,OVCAR-5 ovarian,37.8 µM and 57.6 µM
same,TGI,OVCAR-8 ovarian,27.7 µM and 25.5 µM
same,TGI,RPMI-8226 leukemia,29.3 µM and 54.4 µM
same,TGI,RXF 393 renal,18.4 µM and 33 µM
same,TGI,SF-268 CNS,47.1 µM and > 100 µM
same,TGI,SF-295 CNS,33.6 µM and 48.4 µM
same,GI50,SF-539 CNS,7.97 µM and 3.53 µM
same,TGI,SF-539 CNS,53.5 µM and 37.8 µM
same,TGI,SK-MEL-2 melanoma,19.3 µM and 28.5 µM
same,TGI,SK-MEL-28 melanoma,30.7 µM and > 100 µM
same,TGI,SK-MEL-5 melanoma,8.66 µM
same,TGI,SK-OV-3 ovarian,84.4 µM and > 100 µM
same,TGI,SN12C renal,> 100 µM
same,TGI,SNB-19 CNS,> 100 µM and 77.4 µM
same,TGI,SNB-75 CNS,26.3 µM and 21.1 µM
same,GI50,SNB-78 CNS,14.9 µM and 6.03 µM
same,TGI,SNB-78 CNS,66.1 µM and > 100 µM
same,TGI,SW-620 colon,23.4 µM and > 100 µM
same,GI50,TK-10 renal,3.02 µM and 10.2 µM
same,TGI,U251 CNS,35.1 µM and > 100 µM
same,GI50,UACC-257 melanoma,5.23 µM and 2.59 µM
same,TGI,UACC-257 melanoma,39.2 µM and 11.7 µM
same,TGI,UACC-62 melanoma,69.2 µM and 8.07 µM
same,TGI,UO-31 renal,23.9 µM and 14.8 µM
same,TGI,XF 498 CNS,21.1 µM and 22.1 µM
